Key:
Type in all cases: in vivo
[1] = test system: rats; test: Activity cage with automatic infrared activity monitoring (rearing, activity, mobility) in rats; details: 2 mg/Kg oral, after 4 hours, one hour in activity cage
Protocol: Analysis of stimulatory effect of HPPD inhibitors as a mechanism for the treatment of withdrawal symptoms associated with an addictive drug such as nicotine. 12 rats were dosed orally with 2 mg/Kg of 2-(2-Nitro-4-Trifluoromethylbenzoyl)-1,3-Cyclohexanedione. As a control, 12 rats were orally dosed with the dosing vehicle. After 4 hours, animals were each placed in an activity cage for one hour, containing an automatic activity monitoring system with infrared beams to determine activity and mobility.

[2] = test system: plasma tyrosine, dopamine turnover and noradrenaline levels; test: Plasma tyrosine, dopamine turnover and noradrenaline levels in orally dosed rats; details: 2 mg/Kg oral, after 24 hours
Protocol: 10 rats were dosed orally with 2 mg/Kg of 2-(2-Nitro-4-Trifluoromethylbenzoyl)-1,3-Cyclohexanedione. As a control, 10 rats were orally dosed with the dosing vehicle. After 24 hours, plasma tyrosine levels were identified. Dopamine levels and dopamine turnover and noradrenaline levels were also analysed.

[3] = test system: plasma tyrosine, dopamine levels and dopamine turnover; test: Plasma tyrosine, dopamine levels and dopamine turnover in orally dosed mice; details: 0.1 mg/Kg oral; for plasma tyrosine levels: vs vehicle control
Protocol: Illustration of increase in levels and turnover of dopamine as a mechanism for treatment/prevention of depression and treatment of the withdrawal symptoms associated with withdrawal from an addictive drug such as cocaine. 10 mice were dosed orally with 0.1 mg/Kg of 2-(2-Nitro-4-Trifluoromethylbenzoyl)-1,3-Cyclohexanedione. As a control, 10 mice were orally dosed with the dosing vehicle. After 24 hours, plasma tyrosine levels were identified. Dopamine levels and dopamine turnover were also analysed. 10 mice were dosed orally with 0.1 mg/Kg of 2-(2-Nitro-4-Trifluoromethylbenzoyl)-1,3-Cyclohexanedione. As a control, 9 mice were orally dosed with the dosing vehicle. After 6 hours, plasma tyrosine levels were identified. Dopamine levels and dopamine turnover were also analysed.

Structure (SMILES): O=C1CCCC(O)=C1C(=O)c1ccc(C(F)(F)F)cc1[N+](=O)[O-] [2-(2-Nitro-4-Trifluoromethylbenzoyl)-1,3-Cyclohexanedione]
- active time, decrease compared with the control group [1]: ~27%
- activity counts, decrease compared with the control group [1]: approximately 43%
- centre rearing counts, increase compared with the control group [1]: 63%
- effect on rearing behaviour [1]: mild stimulatory effect
- mean rearing counts, increase compared with the control group [1]: 91%
- mobile time, decrease compared with the control group [1]: ~49%
- rearing time, increase compared with the control group [1]: 79%
- dopamine turnover increase in the treated compared with the control group [2]: 25%
- noradrenaline increase compared with the mean of the controls ([2]; cortex): up to 76%
- noradrenaline increase compared with the mean of the controls ([2]; hypothalamus): ≤ 21%
- plasma tyrosine levels ([2]; vs vehicle control): elevated
- dopamine increase compared with the mean of the controls ([3]; after 6 hours): up to 15%
- dopamine turnover increase compared with the mean of the controls ([3]; after 6 hours): up to 15%
- plasma tyrosine levels ([3]; after 6 hours): elevated
- dopamine increase compared with the mean of the controls ([3]; after 24 hours): up to 16%
- dopamine turnover increase compared with the mean of the controls ([3]; after 24 hours): up to 27%
- plasma tyrosine levels ([3]; after 24 hours): elevated

Source: patent US20100305095A1, “Use of HPPD Inhibitors in the Treatment of Depression and/or Withdrawal Symptoms Associated with Addictive Drugs” (priority 2006, published 2010)
